Test results as given in patent US20250388572A1, “USE OF HPK1 INHIBITOR IN PREVENTION AND/OR TREATMENT OF HUMAN PATHOGEN INFECTION” (priority 2022, published 2025).
Read-outs that look alike come from different tables or passages of the source.

Tests used:
SARS-Cov-2 virus = test: Pharmacodynamic evaluation for Covid 19 in hamsters; format: in vivo, Syrian golden hamsters
Method: A total of 20 wild-type Syrian golden hamsters, aged 6-8 weeks, with half male and half female, were randomly divided into two groups: control group (n=4), and therapy group consisting of 5 mg/kg and 20 mg/kg groups, with 8 mice per group. Starting from day 0 (DO), the hamsters in the therapy group were given A2 orally at a total daily dose of 5 mg/kg or 20 mg/kg, and the control group was given an equal amount of blank drug orally daily. Meanwhile, on day 0, all hamsters were anesthetized and then inoculated intranasally with 100 uL of 1.375×10^6 PFU/mL SARS-Cov-2 virus. Clinical manifestations and body weight were monitored daily. At the end of the study, tissues (e.g., lungs) were collected and weighed, and virus RNA and infectious virus were then quantified.

[1] = mouse, microsomes, 1 h, 10 µM
Method: (§1) The procedure for identifying microsomal metabolites is as follows:
(§2) The compounds (test compounds and their numbers are shown below, among which compounds A1 and B1 are prepared by referring to the relevant method disclosed in CN110396087A) were weighed and dissolved into dimethyl sulfoxide to prepare a 20 mM solution. The compound stock solution was diluted with 50% acetonitrile in water (v/v) to a concentration of 1.0 mM as a working solution. Liver microsomes (20 mg/mL) were diluted to 1.27 mg/mL with 50 mM dipotassium hydrogen phosphate buffer as a liver microsome working solution. Reduced coenzyme was weighed and dissolved in 3307 μL of phosphate buffer (50 mM) to 5.0 mM as a reduced coenzyme working solution. For T=60 minutes samples, 4 μL of test working solution (1.0 mM) was added, followed by 316 μL of liver microsome working solution (1.27 mg/mL), and finally, 80 μL of reduced coenzyme working solution was added to start the reaction. For T=0 minutes samples, 316 μL of liver microsome working solution (1.27 mg/mL) was added and then 80 μL of reduced coenzyme working solution was added to start the reaction, without test solution incubation. After incubation at 37° C. for 60 minutes, 1200 μL of stop solution was added to stop the enzyme reaction. For T=0 minute samples, 4 μL of test working solution (1.0 mM) was added. The sample plate was placed on a vortexer and vortexed at 600 rpm for 5 minutes. Then, the sample plate was centrifuged at 4000 rpm for 10 minutes. The supernatant was removed, mixed, and dried at room temperature with nitrogen. The residue dried with nitrogen was redissolved in 300 μL of 10% acetonitrile (0.1% FA) solvent and then centrifuged at 4000 rpm for 15 minutes. The supernatant was transferred to a detection plate for mass spectrometry. Mass spectrometry was performed using LC/Q-Exactive plus.
(§3) 7-Ethoxycoumarin (10 μM) was selected as a positive control compound and operated in parallel with the compounds.

[2] = cynomolgus macaque, microsomes, 1 h, 10 µM
Method: as §1, §2, §3

in vivo = conditions: male, Sprague Dawley, rat
Method: Six male Sprague Dawley rats were administrated a single dose via intravenous injection (iv, n=3) and oral administration (po, n=3), respectively. Intravenous injection was performed by formulating the compounds into 0.25 mg/ml or 0.5 mg/mL solutions using 10% DMSO/30% PEG400/60% water and administering it at a volume of 2 mL/kg. Oral administration was performed by formulating the compounds into 0.6 mg/ml or 2.0 mg/mL homogeneous suspensions using 0.5% methylcellulose and administering it at a volume of 5 mL/kg.
The pharmacokinetic parameters of the compounds were calculated using the WinNolin non-compartmental model.

[3] = rat, microsomes, 1 h, 10 µM
Method: as §1, §2, §3

MHV-A59 virus = test: Pharmacodynamic evaluation for MHV, high-dose virus group; format: in vivo, C57BL/6 mice; conditions: 10 mg/kg daily, 2×10^6 PFU; for survival rate: all control mice died
Method: The effect of A2 on the prevention and treatment of MHV was investigated.
High-dose virus group: 21 male SPF grade C57BL/6 mice, aged 4 weeks, were divided into three groups: control group, precaution group and therapy group. These mice were anesthetized and then injected intrahepatically (i.h.) with 100 μL of DMEM containing 2×10^6 PFU MHV-A59 virus. The precaution group was given the first dose of A2 at 10 mg/kg 24 hours before the challenge, and the therapy group was given the first dose of A2 at 10 mg/kg 24 hours after the challenge, followed by daily continuous administration, both the precaution group and the therapy group being given a daily dose of 10 mg/kg. The weight change, clinical symptoms of disease and mortality of infected mice were monitored daily.

[4] = human, microsomes, 1 h, 10 µM
Method: as §1, §2, §3

H1N1 (PR8 strain) = test: Pharmacodynamic evaluation for H1N1 in mice; format: in vivo, C57BL/6 mice; conditions: 3 mg/kg, oral
Method: Six to eight-week-old female SPFC 57BL/6 mice (VitalRiver Laboratory Animal Technology Co., Ltd., SCXK (Beijing) 2016-0006, Beijing version) were infected with H1N1 (PR8 strain) and stimulated intranasally with 1×10^4 TCID50 virus nose drops. Mice were randomly divided into a therapy group and a control group. The therapy group was given 3 mg/kg of A2 orally, and the control group was given an equal amount of blank drug orally. The weight loss of mice in all groups was monitored daily.

[2H]C([2H])([2H])N1CCC(n2cc(-c3cnc(N)c(OCc4cccc(C#CC(C)(C)O)c4)c3)cn2)CC1 [Compound A2, 4-(3-(((2-amino-5-(1-(1-trideuteriomethylpiperidin-4-yl)-1H-pyrazol-4-yl)pyridin-3-yl)oxy)methyl)phenyl)-2-methylbut-3-yn-2-ol]
body weight of SARS-Cov-2 infected hamsters (SARS-Cov-2 virus; 20 mg/kg daily, oral): gained weight at a much faster rate
lung weight normalized to total body weight (SARS-Cov-2 virus; all A2 dose groups (5 mg/kg and 20 mg/kg daily, oral)): decreased
remaining percentage of the parent cores after 60 min [1]: 55.0%
remaining percentage of the parent cores after 60 min [2]: 29.6%
AUC(0-t) (in vivo; iv, 1 mg/kg): 247 ng·h/mL
clearance (in vivo; iv, 1 mg/kg): 71 mL/min/kg
AUC(0-t) (in vivo; po, 10 mg/kg): 572 ng·h/mL
bioavailability (in vivo; po, 10 mg/kg): 23.2%
remaining percentage of the parent cores after 60 min [3]: 52.1%
survival rate (MHV-A59 virus; precaution group): 42.86%
average body weight (MHV-A59 virus; precaution group, day 1): 13.39 g
average body weight (MHV-A59 virus; precaution group, day 8): 16.34 g
survival rate (MHV-A59 virus; therapy group): 28.57%
average body weight (MHV-A59 virus; therapy group, day 1): 12.48 g
average body weight (MHV-A59 virus; therapy group, day 8): 11.39 g
remaining percentage of the parent cores after 60 min [4]: 83.9%
survival rate of H1N1-infected mice (H1N1 (PR8 strain)): significantly higher than that of the blank control group
